# According to patent EP0968651A1, “Pesticidal method and composition” (RHONE-POULENC A[…]., priority 1998, dated 2000):
# Tested on: vine weevil
# Experiment: Drench treatments of potted Fuchsia triphylla hybrid cv. Koralle infested with vine weevil eggs (curative)
# Assay type: in vivo
# Settings: curative drench treatment; after 6 months
# Method: In 20-replicate tests, Fuchsia triphylla hybrid cv. Koralle was infested with 15 eggs per pot of vine weevil. Compound A in the form of an 80% water dispersible granule (Regent 800 WG) was suspended in water and added to each pot at the indicated rate per surface area of the pot at various dilutions. After 6 months, the trials were assessed.
smiles,measurement,value
"N#Cc1nn(-c2c(Cl)cc(C(F)(F)F)cc2Cl)c(N)c1[S+]([O-])C(F)(F)F (stereo not shown) [Compound A, 5-amino-1-(2,6-dichloro 4-trifluoromethylphenyl) 4-trifluoromethylsulfinyl-3-cyanopyrazole]",protection of the plants compared with fonofos,protected the plants substantially better than the commercial standard fonofos
